Experimental data as given in PubChem BioAssay (NCI).
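Cells were grown in 96-well plates and exposed to each compound for 48 hours at five concentrations; endpoints were interpolated linearly between bracketing concentrations, or set to the highest concentration if not reached. GI50: concentration for 50% inhibition of growth. TGI marks complete inhibition of growth.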

How the values were obtained:
Test in all cases: NCI tumour cell line growth inhibition, 48 h
A498 renal = tested on: A498 renal
NCI-H226 lung = tested on: NCI-H226 lung
TK-10 renal = tested on: TK-10 renal
NCI-H460 lung = tested on: NCI-H460 lung
MALME-3M melanoma = tested on: MALME-3M melanoma
SR leukemia = tested on: SR leukemia
OVCAR-4 ovarian = tested on: OVCAR-4 ovarian
786-0 renal = tested on: 786-0 renal
NCI-H522 lung = tested on: NCI-H522 lung
OVCAR-3 ovarian = tested on: OVCAR-3 ovarian
HCT-15 colon = tested on: HCT-15 colon
SNB-19 CNS = tested on: SNB-19 CNS
MOLT-4 leukemia = tested on: MOLT-4 leukemia
COLO 205 colon = tested on: COLO 205 colon
SK-MEL-2 melanoma = tested on: SK-MEL-2 melanoma
SK-MEL-5 melanoma = tested on: SK-MEL-5 melanoma
SF-295 CNS = tested on: SF-295 CNS
HOP-62 NSCLC = tested on: HOP-62 NSCLC
OVCAR-8 ovarian = tested on: OVCAR-8 ovarian
HOP-92 NSCLC = tested on: HOP-92 NSCLC
LOX IMVI melanoma = tested on: LOX IMVI melanoma
HT29 colon = tested on: HT29 colon
SNB-75 CNS = tested on: SNB-75 CNS
SK-MEL-28 melanoma = tested on: SK-MEL-28 melanoma
MDA-MB-231 breast = tested on: MDA-MB-231 breast
NCI-H23 lung = tested on: NCI-H23 lung
CCRF-CEM leukemia = tested on: CCRF-CEM leukemia
PC-3 prostate = tested on: PC-3 prostate
HCT-116 colon = tested on: HCT-116 colon
UACC-62 melanoma = tested on: UACC-62 melanoma
UO-31 renal = tested on: UO-31 renal
SF-268 CNS = tested on: SF-268 CNS
IGROV1 ovarian = tested on: IGROV1 ovarian
EKVX NSCLC = tested on: EKVX NSCLC
DU-145 prostate = tested on: DU-145 prostate
U251 CNS = tested on: U251 CNS
SN12C renal = tested on: SN12C renal
SK-OV-3 ovarian = tested on: SK-OV-3 ovarian
NCI/ADR-RES ovarian = tested on: NCI/ADR-RES ovarian
SW-620 colon = tested on: SW-620 colon
HS 578T breast = tested on: HS 578T breast
SF-539 CNS = tested on: SF-539 CNS
MDA-MB-468 breast = tested on: MDA-MB-468 breast
MCF7 breast = tested on: MCF7 breast
HL-60(TB) leukemia = tested on: HL-60(TB) leukemia
CAKI-1 renal = tested on: CAKI-1 renal
RXF 393 renal = tested on: RXF 393 renal
KM12 colon = tested on: KM12 colon
M14 melanoma = tested on: M14 melanoma
A549 NSCLC = tested on: A549 NSCLC
OVCAR-5 ovarian = tested on: OVCAR-5 ovarian
K-562 leukemia = tested on: K-562 leukemia
T-47D breast = tested on: T-47D breast
BT-549 breast = tested on: BT-549 breast
MDA-MB-435 = tested on: MDA-MB-435
ACHN renal = tested on: ACHN renal
UACC-257 melanoma = tested on: UACC-257 melanoma
HCC-2998 colon = tested on: HCC-2998 colon

COc1ccc(/C=C/C(=O)c2ccc(S(=O)(=O)NCCNc3nc(Nc4ccc(F)cc4)nc(N(C)C)n3)cc2)cc1
GI50 (A498 renal): 10 µM | TGI (A498 renal): 29.7 µM | GI50 (NCI-H226 lung): 3.8 µM | TGI (NCI-H226 lung): 20.4 µM | GI50 (TK-10 renal): 8.09 µM | TGI (TK-10 renal): > 100 µM | GI50 (NCI-H460 lung): 4.11 µM | TGI (NCI-H460 lung): 21.6 µM | GI50 (MALME-3M melanoma): 10.6 µM | TGI (MALME-3M melanoma): 43.9 µM | GI50 (SR leukemia): 2.97 µM | TGI (SR leukemia): 13.2 µM | GI50 (OVCAR-4 ovarian): 4.12 µM | TGI (OVCAR-4 ovarian): > 100 µM | GI50 (786-0 renal): 6.33 µM | TGI (786-0 renal): > 100 µM | GI50 (NCI-H522 lung): 2.55 µM | TGI (NCI-H522 lung): 12.5 µM | GI50 (OVCAR-3 ovarian): 5.01 µM | TGI (OVCAR-3 ovarian): 19.9 µM | GI50 (HCT-15 colon): 2.71 µM | TGI (HCT-15 colon): 7.07 µM | GI50 (SNB-19 CNS): 5.58 µM | TGI (SNB-19 CNS): 45.5 µM | GI50 (MOLT-4 leukemia): 3.12 µM | TGI (MOLT-4 leukemia): 13.2 µM | GI50 (COLO 205 colon): 3.46 µM | TGI (COLO 205 colon): 14.3 µM | GI50 (SK-MEL-2 melanoma): 8.1 µM | TGI (SK-MEL-2 melanoma): 22.3 µM | GI50 (SK-MEL-5 melanoma): 3.5 µM | TGI (SK-MEL-5 melanoma): 13.2 µM | GI50 (SF-295 CNS): 5.05 µM | TGI (SF-295 CNS): 18.7 µM | GI50 (HOP-62 NSCLC): 17.1 µM | TGI (HOP-62 NSCLC): > 100 µM | GI50 (OVCAR-8 ovarian): 9.51 µM | TGI (OVCAR-8 ovarian): > 100 µM | GI50 (HOP-92 NSCLC): 3.25 µM | TGI (HOP-92 NSCLC): 31 µM | GI50 (LOX IMVI melanoma): 3.23 µM | TGI (LOX IMVI melanoma): 11.5 µM | GI50 (HT29 colon): 1.83 µM | TGI (HT29 colon): 3.73 µM | GI50 (SNB-75 CNS): 3.57 µM | TGI (SNB-75 CNS): > 100 µM | GI50 (SK-MEL-28 melanoma): 5.23 µM | TGI (SK-MEL-28 melanoma): 19 µM | GI50 (MDA-MB-231 breast): 2.73 µM | TGI (MDA-MB-231 breast): 10.5 µM | GI50 (NCI-H23 lung): 10.4 µM | TGI (NCI-H23 lung): 50.5 µM | GI50 (CCRF-CEM leukemia): 4.09 µM | TGI (CCRF-CEM leukemia): > 100 µM | GI50 (PC-3 prostate): 3.5 µM | TGI (PC-3 prostate): > 100 µM | GI50 (HCT-116 colon): 1.86 µM | TGI (HCT-116 colon): 3.62 µM | GI50 (UACC-62 melanoma): 4.79 µM | TGI (UACC-62 melanoma): 19.3 µM | GI50 (UO-31 renal): 3.78 µM | TGI (UO-31 renal): 99.4 µM | GI50 (SF-268 CNS): 4.43 µM | TGI (SF-268 CNS): 55.8 µM | GI50 (IGROV1 ovarian): 10.8 µM | TGI (IGROV1 ovarian): 45.6 µM | GI50 (EKVX NSCLC): 4.12 µM | TGI (EKVX NSCLC): 22.3 µM | GI50 (DU-145 prostate): 7.54 µM | TGI (DU-145 prostate): > 100 µM | GI50 (U251 CNS): 6.7 µM | TGI (U251 CNS): 21.5 µM | GI50 (SN12C renal): 3.6 µM | TGI (SN12C renal): 13.3 µM | GI50 (SK-OV-3 ovarian): 13.9 µM | TGI (SK-OV-3 ovarian): 76.3 µM | GI50 (NCI/ADR-RES ovarian): 5.66 µM | TGI (NCI/ADR-RES ovarian): 35.5 µM | GI50 (SW-620 colon): 5.42 µM | TGI (SW-620 colon): 19.7 µM | GI50 (HS 578T breast): 4.68 µM | TGI (HS 578T breast): 44.8 µM | GI50 (SF-539 CNS): 10.3 µM | TGI (SF-539 CNS): 23 µM | GI50 (MDA-MB-468 breast): 2.57 µM | TGI (MDA-MB-468 breast): 10.3 µM | GI50 (MCF7 breast): 1.93 µM | TGI (MCF7 breast): 5.85 µM | GI50 (HL-60(TB) leukemia): 3.6 µM | TGI (HL-60(TB) leukemia): 31.5 µM | GI50 (CAKI-1 renal): 3.34 µM | TGI (CAKI-1 renal): > 100 µM | GI50 (RXF 393 renal): 2.59 µM | TGI (RXF 393 renal): 12.3 µM | GI50 (KM12 colon): 4.01 µM | TGI (KM12 colon): 16.7 µM | GI50 (M14 melanoma): 4.27 µM | TGI (M14 melanoma): 19.2 µM | GI50 (A549 NSCLC): 6.54 µM | TGI (A549 NSCLC): > 100 µM | GI50 (OVCAR-5 ovarian): 8.44 µM | TGI (OVCAR-5 ovarian): 45.9 µM | GI50 (K-562 leukemia): 3.99 µM | TGI (K-562 leukemia): > 100 µM | GI50 (T-47D breast): 3.78 µM | TGI (T-47D breast): 89.8 µM | GI50 (BT-549 breast): 13.2 µM | TGI (BT-549 breast): 27.4 µM | GI50 (MDA-MB-435): 5.47 µM | TGI (MDA-MB-435): 23.4 µM | GI50 (ACHN renal): 3.4 µM | TGI (ACHN renal): > 100 µM | GI50 (UACC-257 melanoma): 13.3 µM | TGI (UACC-257 melanoma): 38.4 µM | GI50 (HCC-2998 colon): 5.47 µM | TGI (HCC-2998 colon): 18 µM
